Patent US20250145633A1, “SUBSTITUTED FURANOPYRIMIDINE COMPOUNDS AS PDE1 INHIBITORS” (Dart NeuroScience, LLC, priority 2017, published 2025)

Molecular target: human PDE1B enzyme (Homo sapiens (Human), UniProt Q01064)
Assay: IMAP TR-FRET PDE1B enzymatic assay
Assay type: biochemical
Conditions: negative log of half-maximal molar inhibitory concentration, 200 nM FAM-cAMP, values given as bins; for IC50: read-out: PDE1b (pIC50) (converted)
How it was run: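 Full-length GST-tagged human PDE1B (250 pg/well) in IMAP BSA buffer with 10 U/ml calmodulin and 2.5 mM CaCl2; compound pre-incubated 5 min at room temperature, then 200 nM (final) FAM-cAMP for 30 min. IMAP binding reagent/Tb added, 1 h; TR-FRET 520/490 ratio read. IC50 from sigmoidal dose-response fit.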

Structure (SMILES) | IC50 | PDE1b (pIC50)
Cc1oc2ncnc(NC3(C)CC3)c2c1C(=O)NCc1cnn(-c2ccc(F)cc2)c1 [Example 571, N-{[1-(4-Fluorophenyl)-1H-pyrazol-4-yl]methyl}-6-methyl-4-[(1-methylcyclopropyl)amino]furo[2,3-d]pyrimidine-5-carboxamide] | 10 to 100 nM | 
Cc1oc2ncnc(NC3(C)CC3)c2c1C(=O)NCc1cnn(-c2cccc(F)c2)c1 [Example 572, N-{[1-(3-Fluorophenyl)-1H-pyrazol-4-yl]methyl}-6-methyl-4-[(1-methylcyclopropyl)amino]furo[2,3-d]pyrimidine-5-carboxamide] |  | >8
COc1ccc(CN(CCCO)C(=O)c2c(C)oc3ncnc(NC4(C)CC4)c23)cc1 [Example 573, N-(3-Hydroxypropyl)-N-[(4-methoxyphenyl)methyl]-6-methyl-4-[(1-methylcyclopropyl)amino]furo[2,3-d]pyrimidine-5-carboxamide] | 10 to 100 nM | 
Cc1oc2ncnc(NC3(C)CC3)c2c1C(=O)N(CCCO)Cc1ccc(F)cc1 [Example 574, N-[(4-Fluorophenyl)methyl]-N-(3-hydroxypropyl)-6-methyl-4-[(1-methylcyclopropyl)amino]furo[2,3-d]pyrimidine-5-carboxamide] |  | >8
Cc1oc2ncnc(NC3(C)CC3)c2c1C(=O)N(C)Cc1nc2ccc(F)cc2[nH]1 [Example 575, N-[(6-Fluoro-1H-1,3-benzodiazol-2-yl)methyl]-N,6-dimethyl-4-[(1-methylcyclopropyl)amino]furo[2,3-d]pyrimidine-5-carboxamide] | 100 to 1000 nM | 
COCCN(Cc1cccc(OC)c1)C(=O)c1c(C)oc2ncnc(NC3(C)CC3)c12 [Example 580, N-(2-Methoxyethyl)-N-[(3-methoxyphenyl)methyl]-6-methyl-4-[(1-methylcyclopropyl)amino]furo[2,3-d]pyrimidine-5-carboxamide] | 10 to 100 nM | 
Cc1oc2ncnc(NC3(C)CC3)c2c1C(=O)N(C)CCc1nc2cc(F)ccc2[nH]1 [Example 583, N-[2-(5-Fluoro-1H-1,3-benzodiazol-2-yl)ethyl]-N,6-dimethyl-4-[(1-methylcyclopropyl)amino]furo[2,3-d]pyrimidine-5-carboxamide] | 100 to 1000 nM | 
Cc1oc2ncnc(NC3(C)CC3)c2c1C(=O)NCc1cc2ccc(F)cc2[nH]c1=O [Example 584, N-[(7-Fluoro-2-oxo-1,2-dihydroquinolin-3-yl)methyl]-6-methyl-4-[(1-methylcyclopropyl)amino]furo[2,3-d]pyrimidine-5-carboxamide] | 10 to 100 nM | 
Cc1oc2ncnc(NC3(C)CC3)c2c1C(=O)NCCOc1ccc(F)cc1 [Example 585, N-[2-(4-Fluorophenoxy)ethyl]-6-methyl-4-[(1-methylcyclopropyl)amino]furo[2,3-d]pyrimidine-5-carboxamide] |  | >8
COc1ccccc1OC1CN(C(=O)c2c(C)oc3ncnc(NC4(C)CC4)c23)C1 [Example 589, 5-[3-(2-Methoxyphenoxy)azetidine-1-carbonyl]-6-methyl-N-(1-methylcyclopropyl)furo[2,3-d]pyrimidin-4-amine] | 10 to 100 nM | 
COc1cccc(OC2CN(C(=O)c3c(C)oc4ncnc(NC5(C)CC5)c34)C2)c1 [Example 590, 5-[3-(3-Methoxyphenoxy)azetidine-1-carbonyl]-6-methyl-N-(1-methylcyclopropyl)furo[2,3-d]pyrimidin-4-amine] | < 10 nM | 
CCOc1ccc(C(C)NC(=O)c2c(C)oc3ncnc(NC4(C)CC4)c23)cc1F (stereo not shown) [Example 595, N-[1-(4-Ethoxy-3-fluorophenyl)ethyl]-6-methyl-4-[(1-methylcyclopropyl)amino]furo[2,3-d]pyrimidine-5-carboxamide] | 10 to 100 nM | 
COc1cccc2c1OCCCN(C(=O)c1c(C)oc3ncnc(NC4(C)CC4)c13)C2 [Example 600] | 10 to 100 nM | 
COc1ccc(CN(C)C(=O)c2c(C)oc3ncnc(NC4(C)CC4)c23)cc1O [Example 604, N-[(3-Hydroxy-4-methoxyphenyl)methyl]-N,6-dimethyl-4-[(1-methylcyclopropyl)amino]furo[2,3-d]pyrimidine-5-carboxamide] | 10 to 100 nM | 
C#CCN(Cc1ccc(OC)cc1)C(=O)c1c(C)oc2ncnc(NC3(C)CC3)c12 [Example 606, N-[(4-Methoxyphenyl)methyl]-6-methyl-4-[(1-methylcyclopropyl)amino}-N-(prop-2-yn-1-yl)furo[2,3-d]pyrimidine-5-carboxamide] | 10 to 100 nM | 
COc1ccccc1C(C)NC(=O)c1c(C)oc2ncnc(NC3(C)CC3)c12 (stereo not shown) [Example 613, N-[1-(2-Methoxyphenyl)ethyl]-6-methyl-4-[(1-methylcyclopropyl)amino]furo[2,3-d]pyrimidine-5-carboxamide] | 10 to 100 nM | 
Cc1oc2ncnc(NC3(C)CC3)c2c1C(=O)NCc1cc([N+](=O)[O-])ccc1F [Example 614, N-[(2-Fluoro-5-nitrophenyl)methyl]-6-methyl-4-[(1-methylcyclopropyl)amino]furo[2,3-d]pyrimidine-5-carboxamide] | < 10 nM | 
COc1ccc(CCNC(=O)c2c(C)oc3ncnc(NC4(C)CC4)c23)cc1 [Example 619, N-[2-(4-Methoxyphenyl)ethyl]-6-methyl-4-[(1-methylcyclopropyl)amino]furo[2,3-d]pyrimidine-5-carboxamide] | 10 to 100 nM | 
Cc1oc2ncnc(NC3(C)CC3)c2c1C(=O)Nc1cnn(-c2cccnc2)c1 [Example 620, 6-Methyl-4-[(1-methylcyclopropyl)amino]-N-[1-(pyridin-3-yl)-1H-pyrazol-4-yl]furo[2,3-d]pyrimidine-5-carboxamide] | 10 to 100 nM | 
Cc1oc2ncnc(NC3(C)CC3)c2c1C(=O)Nc1cnn(-c2ccncc2)c1 [Example 621, 6-Methyl-4-[(1-methylcyclopropyl)amino]-N-[1-(pyridin-4-yl)-1H-pyrazol-4-yl]furo[2,3-d]pyrimidine-5-carboxamide] | 10 to 100 nM | 
COc1ncnc2c1CN(C(=O)c1c(C)oc3ncnc(NC4(C)CC4)c13)C2 [Example 622, 5-{4-Methoxy-5H,6H,7H-pyrrolo[3,4-d]pyrimidine-6-carbonyl}-6-methyl-N-(1-methylcyclopropyl)furo[2,3-d]pyrimidin-4-amine] | 100 to 1000 nM | 
Cc1oc2ncnc(NC3(C)CC3)c2c1C(=O)N1CCn2cc(C(F)(F)F)nc2C1 [Example 623, 6-Methyl-N-(1-methylcyclopropyl)-5-[2-(trifluoromethyl)-5H,6H,7H,8H-imidazo[1,2-a]pyrazine-7-carbonyl]furo[2,3-d]pyrimidin-4-amine] | 10 to 100 nM | 
Cc1oc2ncnc(NC3(C)CC3)c2c1C(=O)N1CCn2c(Br)cnc2C1 [Example 624, 5-{3-Bromo-5H,6H,7H,8H-imidazo[1,2-a]pyrazine-7-carbonyl}-6-methyl-N-(1-methylcyclopropyl)furo[2,3-d]pyrimidin-4-amine] | 10 to 100 nM | 
Cc1nccc(CNC(=O)c2c(C)oc3ncnc(NC4(C)CC4)c23)n1 [Example 625, 6-Methyl-4-[(1-methylcyclopropyl)amino]-N-[(2-methylpyrimidin-4-yl)methyl]furo[2,3-d]pyrimidine-5-carboxamide] | 10 to 100 nM | 
Cc1oc2ncnc(NC3(C)CC3)c2c1C(=O)NCc1noc(C(F)(F)Cl)n1 [Example 626, N-{[5-(Chlorodifluoromethyl)-1,2,4-oxadiazol-3-yl]methyl}-6-methyl-4-[(1-methylcyclopropyl)amino]furo[2,3-d]pyrimidine-5-carboxamide] | 10 to 100 nM | 
